Results reported in patent US20080033008A1, “COMPOSITIONS AND METHODS FOR TREATING, CONTROLLING, REDUCING, OR AMELIORATING INFECTIONS AND SEQUELAE THEREOF” (priority 2006, published 2008).
Several values for one entry are separate records, joined by “and”; a condition that tells them apart may be missing. Equal values may be shown once. Entries after “also recorded” stand apart in the source; their conditions may differ.

Columns and labels:
[1] = tested on: neovascularization and angiogenesis; details: X. Xin et al., J. Biol. Chem. 274:9116-9121 (1999); cited from earlier work
[2] = Pupillary diameter measurement, rabbit paracentesis model; format: in vivo; details: raw data per eye; for Diameter (mm) T2: −5 min: 5 min before the first paracentesis; for Diameter (mm) T3: +115 min: 5 min before the second paracentesis; for Diameter (mm) T1: −180 min: −180 min (basal)
Description: (§1) Each rabbit was placed in a restraint device and tagged with the alphanumeric code. The formulations were instilled (50 μl) into the conjunctival sac of both eyes 180, 120, 90 and 30 min before the first paracentesis; then 15, 30, 90 min after the first paracentesis. To perform the first paracentesis the animals were anaesthetized by intraveneous injection of 5 mg/kg Zoletil® (Virbac; 2.5 mg/kg tiletamine HCl and 2.5 mg/kg zolazepam HCl) and one drop of local anesthetic (Novesina®, Novartis) was administered to the eye. Anterior chamber paracentesis was performed with a 26 G needle attached to a tuberculin syringe; the needle was introduced into the anterior chamber through the cornea, taking care not to damage the tissues. Two hours after the first paracentesis, the animals were sacrificed with 0.4 ml Tanax® (Intervet International B.V.) and the second paracentesis was performed. About 100 μl of aqueous humor were removed at the second paracentesis. Aqueous humor was immediately split in four aliquots and stored at −80° C. until analysis. Then both eyes were enucleated and the iris-ciliary body was carefully excised, placed in polypropylene tubes, and stored at −80° C. until analysis.
The pupillary diameter of both eyes was measured with a Castroviejo caliper 180 min and 5 min before the first paracentesis and 5 min before the second paracentesis.

[3] = Clinical evaluation by slit lamp (clinical score), rabbit paracentesis model; format: in vivo
Description: as §1
The clinical evaluation of both eyes was performed by a slit lamp (4179-T; Sbisa, Italy) at 180 min and 5 min before the first paracentesis and 5 min before the second paracentesis. The clinical score was assigned according to the following scheme:
1=discrete dilatation of iris and conjunctival vessels
2=moderate dilatation of iris and conjunctival vessels
3=intense iridal hyperemia with flare in the anterior chamber
4=intense iridal hyperemia with flare in the anterior chamber and presence of fibrinous exudates.

Myeloperoxidase (MPO) = Myeloperoxidase (MPO) activity in iris-ciliary body, rabbit paracentesis model; format: in vivo; details: iris-ciliary body samples collected after the second paracentesis, raw data per eye (DX/SX)
Description: 3.9 g of NaH2PO4 2H2O were dissolved in a volumetric flask to 500 ml with water. The pH was adjusted to pH=6 with 3N NaOH.
0.5 g of hexa-decyl-trimethyl-ammonium bromide was dissolved in 100 ml phosphate buffer.
The solution was prepared freshly. Ten microliters of H2O2 (30 wt. %) were diluted to 1 ml with water (solution A). 7.5 mg o-dianisidine 2HCl were dissolved in 45 ml of phosphate buffer and 75 μl of solution A were added.
(§2) Each rabbit was placed in a restraint device and tagged with the alphanumeric code. The formulations were instilled (50 μl) into the conjunctival sac of both eyes 180, 120, 90 and 30 min before the first paracentesis; then 15, 30, 90 min after the first paracentesis. […]
The activity of MPO was measured as previously described by Williams et al. The iris-ciliary bodies were carefully dried, weighed and immersed in 1 ml of hexa-decyl-trimethyl-ammonium bromide solution. […] The change in absorbance at 460 nm was continuously monitored for 5 min by a spectrophotometer (UV/Vis Spectrometer Lambda EZ 201; Perkin Elmer). The slope of the line (Δ/min) was determined for each sample and used to calculate the number of units of MPO in the tissue as follows:
Values were expressed as units of MPO/g of tissue.

[4] = Rabbit paracentesis model of ocular inflammation, overall conclusions; format: in vivo; details: 0.1%, 0.5% and 1% topical formulations; preliminary conclusions; listed as BOL-303242-X
From the text: Inflammatory processes are multidimensional in origin, and are characterized by complex cellular and molecular events involving numerous components all of which have not been identified. Prostaglandins are among these mediators and play an important role in certain forms of ocular inflammation. Paracentesis of the anterior chamber in the rabbit eye induces inflammatory reaction due to the disruption of the blood-aqueous barrier (“BAB”), which is mediated, at least in part, by prostaglandin E2 [References 1-3 below]. Intraocular or topical administration of PGE2 disrupts the BAB. [Reference 4, below] The treatment schedule adopted in this study was similar to the clinical NSAIDs (Ocufen) treatment schedule used by surgeons for patients before cataract surgery.
as §2
Pupillary diameter, PGE2, protein, PMN, and MPO were expressed as mean ±SEM. […] Clinical score was expressed as % of eyes and the statistical analysis was performed using Kruskal-Wallis followed by a Dunn post hoc test. […]

[5] = Very preliminary data (not shown) on side effects of corticosteroids

| Compound | Diameter (mm) T2: −5 min ([2]; 0.1% topical) | Diameter (mm) T3: +115 min ([2]; 0.1% topical) | Diameter (mm) T1: −180 min ([2]; 0.1% topical) | Diameter (mm) T2: −5 min ([2]; 0.5% topical) | Diameter (mm) T3: +115 min ([2]; 0.5% topical) | Diameter (mm) T1: −180 min ([2]; 0.5% topical) | Clinical score expressed as percentage of eyes, Score (%) 3 ([3]; 0.1% topical, +115 min) | Clinical score expressed as percentage of eyes, Score (%) 0 ([3]; 0.1% topical, −5 min) | Clinical score expressed as percentage of eyes, Score (%) 0 ([3]; 0.1% topical, −180 min (basal)) | Clinical score expressed as percentage of eyes, Score (%) 0 ([3]; 0.5% topical, −5 min) | Clinical score expressed as percentage of eyes, Score (%) 0 ([3]; 0.5% topical, −180 min (basal)) | further results |
| --- | --- | --- | --- | --- | --- | --- | --- | --- | --- | --- | --- | --- |
| CCCCCC=CC=C1C(=O)C=C[C@@H]1CC=CCCCC(=O)O [15-deoxy-Δ-12,14-prostaglandin J2] | – | – | – | – | – | – | – | – | – | – | – | Neovascularization and angiogenesis in the rat cornea [1]: inhibit neovascularization and angiogenesis |
| Cc1ccc2c(NCC(O)(CC(C)(C)c3cc(F)cc4c3OCC4)C(F)(F)F)cccc2n1 (centres unmarked) [BOL] | 6.5 mm and 7.0 mm and 7.5 mm | 5.0 mm and 6.0 mm and 6.5 mm and 5.5 mm | 6.5 mm and 7.0 mm and 7.5 mm | 8.0 mm and 7.0 mm and 7.5 mm | 6.5 mm and 6.0 mm and 7.0 mm | 8.0 mm and 7.0 mm and 7.5 mm | 25% | 100% | 100% | 100% | 100% | Diameter (mm) T2: −5 min ([2]; 1% topical): 6.0 mm and 6.5 mm and 7.0 mm; Diameter (mm) T3: +115 min ([2]; 1% topical): 5.5 mm and 5.0 mm and 6.0 mm; Diameter (mm) T1: −180 min ([2]; 1% topical): 6.0 mm and 6.5 mm; Clinical score expressed as percentage of eyes, Score (%) 2 ([3]; 0.1% topical, +115 min): 75%; Clinical score expressed as percentage of eyes, Score (%) 2 ([3]; 1% topical, +115 min): 100%; Clinical score expressed as percentage of eyes, Score (%) 0 ([3]; 1% topical, −5 min): 100%; Clinical score expressed as percentage of eyes, Score (%) 0 ([3]; 1% topical, −180 min (basal)): 100%; MPO (Myeloperoxidase (MPO); 0.1% treatment): 1.00 Unit/g and 0.61 Unit/g and 0.65 Unit/g; MPO (Myeloperoxidase (MPO); 0.5% treatment): 0.85 Unit/g and 0.93 Unit/g and 0.79 Unit/g and 0.75 Unit/g and 0.74 Unit/g and 0.54 Unit/g and 0.58 Unit/g; Anti-inflammatory activity in the rabbit paracentesis model (conclusion) [4]: active in this model; also recorded: as effective an anti-inflammatory drug as some of the commonly accepted prior-art steroids or NSAID; Side effects of corticosteroids [5]: does not have some of the side effects of corticosteroids |
| C[C@@H]1C[C@H]2[C@@H]3CCC4=CC(=O)C=C[C@]4(C)[C@@]3(F)[C@@H](O)C[C@]2(C)[C@@]1(O)C(=O)CO [Dex, dexamethasone] | 5.5 mm and 6.5 mm and 6.0 mm and 7.0 mm and 7.5 mm | 5.5 mm and 6.0 mm and 4.5 mm and 5.0 mm and 6.5 mm | 6.0 mm and 7.0 mm and 5.5 mm and 6.5 mm | – | – | – | 25% | 75% | 100% | – | – | Clinical score expressed as percentage of eyes, Score (%) 1 ([3]; 0.1% topical, +115 min): 75%; Clinical score expressed as percentage of eyes, Score (%) 1 ([3]; 0.1% topical, −5 min): 25% |
| CC(C(=O)O)c1ccc(-c2ccccc2)c(F)c1 (centres unmarked) [F, flurbiprofen] | – | – | – | – | – | – | – | – | – | – | – | Diameter (mm) T2: −5 min ([2]; 0.03% topical): 6.0 mm and 6.5 mm and 7.0 mm and 5.5 mm; Diameter (mm) T3: +115 min ([2]; 0.03% topical): 4.0 mm and 3.5 mm and 5.5 mm and 5.0 mm and 4.5 mm and 6.0 mm; Diameter (mm) T1: −180 min ([2]; 0.03% topical): 5.0 mm and 7.0 mm and 6.0 mm and 5.5 mm; Clinical score expressed as percentage of eyes, Score (%) 2 ([3]; 0.03% topical, +115 min): 100%; Clinical score expressed as percentage of eyes, Score (%) 0 ([3]; 0.03% topical, −5 min): 100%; Clinical score expressed as percentage of eyes, Score (%) 0 ([3]; 0.03% topical, −180 min (basal)): 100% |
| CCOC(=O)O[C@]1(C(=O)OCCl)CC[C@H]2[C@@H]3CCC4=CC(=O)C=C[C@]4(C)[C@H]3[C@@H](O)C[C@@]21C [LE, loteprednol etabonate] | – | – | – | 6.0 mm and 6.5 mm | 4.5 mm and 5.0 mm and 5.5 mm and 6.0 mm | 6.0 mm and 6.5 mm | – | – | – | 100% | 100% | Clinical score expressed as percentage of eyes, Score (%) 1 ([3]; 0.5% topical, +115 min): 75%; Clinical score expressed as percentage of eyes, Score (%) 2 ([3]; 0.5% topical, +115 min): 25% |
